In ChEMBL document CHEMBL5143614, “Structure-activity relationship of 2-aminodibenzothiophene pharmacophore and the discovery of aminobenzothiophenes as potent inhibitors of Mycobacterium smegmatis” (Bioorg Med Chem Lett, 2022):
Converted amounts (≈) assume the structure as drawn.

Columns and labels:
[1] = test system: Mycolicibacterium smegmatis; assay: Antitubercular activity against Mycobacterium smegmatis ATCC 700084 after 48 hrs by microdilution assay; format: functional
[2] = test system: Mycobacterium tuberculosis; assay: Antitubercular activity against Mycobacterium tuberculosis H37Rv; format: functional
[3] = test system: RWPE-1; assay: Cytotoxicity against human RWPE-1 cells assessed as cell viability at 50 ug/ml after 72 hrs by MTT assay; format: toxicity, cell-based; conditions: rwpe-1, 72 h, dose 50 µg/ml

Row | SMILES | MIC [1] [µg/mL] | MIC [2] [µg/mL] | Activity [3]
1 | Nc1ccc2oc3ccccc3c2c1 | 3.13 (≈ 17.1 µM) | 64 (≈ 349 µM) | Toxic
2 | Nc1ccc2[nH]ccc2c1 | > 100 | – | –
3 | Nc1ccc2c(c1)-c1ccccc1S2(=O)=O | > 100 | – | –
4 | CCCCCCNc1ccc2sc3ccccc3c2c1 | > 100 | – | –
5 | c1ccc2c(c1)sc1ccc(N3CCOCC3)cc12 | > 100 | – | –
6 | Nc1ccc2sc3ccccc3c2c1 | 3.13 (≈ 15.7 µM) | 128 (≈ 642 µM) | Toxic
7 | c1ccc2c(c1)CCN2c1ccc2sc3ccccc3c2c1 | > 100 | – | –
8 | O=S(=O)(Nc1ccc2sc3ccccc3c2c1)c1ccccc1 | > 100 | – | –
9 | Nc1ccc2ccsc2c1 | 0.78 (≈ 5.23 µM) | – | Toxic
10 | Nc1ccc2[nH]c3ccccc3c2c1 | > 100 | 16 (≈ 87.8 µM) | –
11 | c1ccc2c(c1)CCCN2c1ccc2sc3ccccc3c2c1 | > 100 | – | –
12 | CCNc1ccc2sc3ccccc3c2c1 | > 100 | – | –
13 | Nc1ccc2sccc2c1 | 0.78 (≈ 5.23 µM) | – | Toxic
14 | Nc1ccc2occc2c1 | 1.56 (≈ 11.7 µM) | – | Toxic
15 | CN(c1ccccc1)c1ccc2sc3ccccc3c2c1 | > 100 | – | –
16 | Nc1ccc2c(c1)-c1cc(N)ccc1S2(=O)=O | > 100 | < 2 | –
17 | c1ccc(Nc2ccc3sc4ccccc4c3c2)cc1 | > 100 | – | –
18 | Nc1cccc2c1sc1ccccc12 | 12.5 (≈ 62.7 µM) | – | –
19 | OB(O)c1ccc2sc3ccccc3c2c1 | 50 (≈ 219 µM) | – | –
20 | CCN(CC)c1ccc2sc3ccccc3c2c1 | > 100 | – | –
21 | c1ccc2c(c1)sc1ccc(N3CCCC3)cc12 | > 100 | – | –
22 | Nc1cccc2sccc12 | 50 (≈ 335 µM) | – | –
23 | OB(O)c1cccc2c1sc1ccccc12 | > 100 | – | –
24 | c1ccc2c(c1)sc1ccc(NC3CCCCC3)cc12 | > 100 | – | –
25 | c1ccc2c(c1)sc1ccc(-n3cccc3)cc12 | > 100 | – | –
26 | Nc1ccc2c(c1)-c1ccccc1C2 | 25 (≈ 138 µM) | 32 (≈ 177 µM) | –
27 | Nc1ccc2sc3ccc(N)cc3c2c1 | > 100 | – | –
28 | NNC(=O)c1ccncc1 [ISONIAZID] | 3.13 (≈ 22.8 µM) | – | –
